Measured values published in US12624031B2, “Inhibitors of ubiquitin specific peptidase 22 (USP22) and uses thereof for treating diseases and disorders” (Northwestern University, priority 2022, dated 2026).

Key:
[1] = tested on: PD-L1 expression in A549 cells; assay: PD-L1 expression in A549 cells by flow cytometry; assay type: cell-based, human; details: Homo sapiens; A549 cells, 48 hours; unit inferred; read-out: IC50 inhibition of PD-L1 expression
Protocol: FIG. 13: The effects of USP22i-S02-S106 on suppression of PD-L1 expression on human lung adenocarcinoma cells. Human […] lung adenocarcinoma A549 cells were treated with S02-S106 or its lead compound S02 for 48 hours. The expression levels of PD-L1 were determined by flow cytometry. (A) Representative flow data from A549 cells treated with 2 μM S02-S106 or with 15 μM S02 are shown. DMSO treated cells were used as an untreated control and USP22 CRISPR knockout A549 cells were used as a positive control. (B) The dose-dependent inhibition of PD-L1 expression in A549 cells by S02-S106 with USP22i-S02 as a control. Data were normalized with PD-L1 expression levels in USP22-KO cells as 100% of USP22 inhibition as shown in A. (C) Inhibition of PD-L1 expression in WT and USP22-null A549 cells by S02-S106.
We then used PD-L1 expression level as a measurement to evaluate the inhibitory efficacy of USP22 by S02-S106.
To determine the specificity of USP22i-S02-S106, we treated the WT and USP22-null lung cancer cells.

Foxp3 in iTreg cells = assay: in vitro dose response study in WT and Usp22-null iTreg cells; assay type: cell-based, murine
Protocol: FIG. 6: Usp22i-S02 halts Usp22-mediated Foxp3 deubiqutination. A, Graphical representation of Foxp3 MFI change in WT versus 22KO iTreg cells treated with various doses of Usp22i-S02 (n=3). B, Representative histogram of Foxp3 MFI level in iTreg cells as Usp22 inhibitor concentration increases from 0-20 μg/mL. C, Cell survival of iTreg cells treated with various doses of Usp22i-S02 (n=3). D, FOXP3 and USP22 protein level in WT and 22KO mice treated with 10 μg/mL Usp22i-S02. E-F, Graphical and representative data of Foxp3 MFI of human Treg cells treated with various doses of Usp22i-S02 (n=3). G, Graphical representation of Foxp3 MFI in WT, Usp21-null, and Usp22-null Treg cells treated with Usp22i-S02 at 10 μg/mL (n=3). H, FOXP3 and USP22 protein degradation of cycloheximide (10 μg/mL) treated iTreg cells with or without the addition of 10 μg/mL of Usp22i-S02. I-J, Endogenous DUB assay IP in iTreg cells of USP22 with FOXP3 under increasing concentrations of Usp22i-S02. K, Foxp3 mRNA level in iTreg cells as Usp22 inhibitor concentration increases from 0-20 μg/mL (n=3). L, FOXP3 and USP22 level in WT iTreg cells with or without 20 μg/mL Usp22 inhibitor treated with 20 μM MG132. M, Graphical representation of the percentage of decrease of Foxp3 MFI in either WT or Usp22-null nTreg cells placed in low glucose conditions with or without the addition of 10 μg/mL of Usp22i-S02 (n=7-8). N, Graphical representation of the percentage of decrease of Foxp3 MFI in WT nTreg cells placed in hypoxic or low amino acid conditions with or without the addition of 10 μg/mL of Usp22i-S02 (n=3-5). G, Two-tailed unpaired t-test comparing within groups was performed to determine statistical significance. K, One-way ANOVA with Dunnet's multiple comparisons between rows relative to control was performed to determine statistical significance. M-N, Two-way ANOVA with Sidak's multiple comparisons between rows was performed to determine statistical significance. All data are presented as mean±stdev. NS, not significant. *P<0.05, **P<0.01, ***P<0.001, ****P<0.0001.
After initial screening, we ran an in vitro dose response study on compound S02, dubbed Usp22i-S02, in both WT and Usp22-null iTreg cells (FIG. 6A-C).

[2] = tested on: FoxP3 expression in CD4+ natural T-regulatory cells; assay: FoxP3 expression in natural T-regulatory cells by flow cytometry; assay type: cell-based, murine; details: concentration of 1-2 ug
Protocol: FIGS. 3 and 4: Change in FoxP3 expression in murine CD4+ natural T-regulatory cells. Murine lymphocytes were isolated from the spleens and lymph nodes and cultured with varying concentrations of inhibitor (0.25 μg/mL to 2 μg/mL) or DMSO, anti-CD3, anti-CD28, TGFβ, and IL-2. After two days, lymphocytes were analyzed by flow cytometry for FoxP3 expression in natural T-regulatory (nTregs) gated on CD3+CD4+CD25+FoxP3+. (FIG. 3) Representative histograms of FITC::FoxP3 MFI in nTregs cultured with inhibitors at a concentration of 2 μg/mL. (FIG. 4) Representative plot of FITC::FoxP3 geometric MFI in nTregs across different concentrations of inhibitor.
We then analyzed whether treatment of Tregs with the compounds S106, 107 and 110 inhibits USP22 activity in Tregs as measured by FoxP3 expression levels by flow cytometry.

[3] = biological target: human GST-USP22 with Sgf11, Sgf73 1-105 and Sus1 (Homo sapiens, UniProt Q9UPT9); assay: in vitro USP22 deubiquitination assay (re-constructed deubiquitination module); assay type: biochemical; details: customized deubiquitination assay, human GST-USP22 with Sgf11, Sgf73 1-105, Sus1; read-out: IC50 in suppressing USP22 in vitro catalytic activity
Protocol: (A) The chemical structure of S02-S106 11-((4-cyanophenyl)amino)-7,8,9,10-tetrahydrobenzo(4,5)imidazole[1,2-b]isoquinoline-6-carbonitrile, (B & C) The efficacy of USP22i-S02 analogs in inhibiting USP22 catalytic activity was determined in vitro. The representative data from a triplicate analysis of S02-S106 with S02 as a control are shown (B). The IC50 of USP22i-S02 analogs in suppressing USP22 in vitro catalytic activity are shown (C). NA, not available.
We purchased human recombinant Sgf11 and Sgf73 1-105 and Sus1 proteins from R&D Systems Inc, and re-constructed the deubiquitination activity with our human GST-USP22. The USP22 customized deubiquitination was optimized and used for in vitro screening the activity of synthetic USP22i-s02 analogs with the USP22i-s02 as a control (FIG. 12).

human GST-USP22 with Sgf11, Sgf73 1-105 and Sus1, sequence (Q9UPT9 whole entry): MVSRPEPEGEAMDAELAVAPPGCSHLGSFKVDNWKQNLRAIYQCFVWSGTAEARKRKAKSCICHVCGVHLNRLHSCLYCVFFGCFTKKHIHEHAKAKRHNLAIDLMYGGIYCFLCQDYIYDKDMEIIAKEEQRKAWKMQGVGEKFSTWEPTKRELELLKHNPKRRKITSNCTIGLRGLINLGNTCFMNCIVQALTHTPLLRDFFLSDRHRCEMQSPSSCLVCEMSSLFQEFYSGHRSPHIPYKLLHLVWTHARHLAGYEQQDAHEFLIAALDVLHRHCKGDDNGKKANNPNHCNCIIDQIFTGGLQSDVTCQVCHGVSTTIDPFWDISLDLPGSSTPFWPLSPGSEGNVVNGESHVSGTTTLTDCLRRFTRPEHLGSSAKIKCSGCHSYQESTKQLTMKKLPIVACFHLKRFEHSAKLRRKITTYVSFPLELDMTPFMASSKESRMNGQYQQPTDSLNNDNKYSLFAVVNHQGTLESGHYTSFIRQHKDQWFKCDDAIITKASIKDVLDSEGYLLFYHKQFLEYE
human GST-USP22 with Sgf11, Sgf73 1-105 and Sus1, sequence (Q14CW9 whole entry partner): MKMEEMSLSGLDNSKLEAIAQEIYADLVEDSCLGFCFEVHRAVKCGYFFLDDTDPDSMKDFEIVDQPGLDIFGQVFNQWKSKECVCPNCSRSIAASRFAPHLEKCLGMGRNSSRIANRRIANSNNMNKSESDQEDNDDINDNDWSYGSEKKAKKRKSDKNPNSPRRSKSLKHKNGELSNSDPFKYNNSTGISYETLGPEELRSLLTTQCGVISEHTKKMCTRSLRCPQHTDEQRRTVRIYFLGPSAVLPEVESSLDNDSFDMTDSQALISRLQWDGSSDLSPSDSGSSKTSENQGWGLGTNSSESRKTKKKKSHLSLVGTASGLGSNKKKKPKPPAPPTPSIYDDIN
human GST-USP22 with Sgf11, Sgf73 1-105 and Sus1, sequence (O15265 1-105 partner limits assumed): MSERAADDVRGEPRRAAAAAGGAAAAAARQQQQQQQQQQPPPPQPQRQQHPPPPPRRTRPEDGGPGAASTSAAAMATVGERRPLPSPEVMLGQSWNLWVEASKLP
human GST-USP22 with Sgf11, Sgf73 1-105 and Sus1, sequence (Q9NPA8 whole entry partner): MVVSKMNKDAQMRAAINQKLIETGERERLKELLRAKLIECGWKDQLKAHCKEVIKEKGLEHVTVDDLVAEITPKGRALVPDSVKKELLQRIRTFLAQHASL

Compound: N#Cc1c2c(c(Nc3ccccc3)n3c1nc1ccccc13)CCCC2 [USP22i-S02, 11-anilino-7,8,9,10-tetrahydrobenzimidazo[1,2-b]isoquinoline-6-carbonitrile]
- IC50 [1]: 13.7 µM
- viability of iTreg cells (Foxp3 in iTreg cells; 10 μg/mL): little effect on viability
- FOXP3 degradation with MG132 (Foxp3 in iTreg cells; 20 μg/mL inhibitor, 20 μM MG132): halted by MG132 protease inhibition
- FOXP3 degradation in cycloheximide treated iTreg cells (Foxp3 in iTreg cells; CHX 10 μg/mL, 10 μg/mL inhibitor): enhanced FOXP3 degradation
- effect on iTreg cells lacking Usp21 (Foxp3 in iTreg cells; Usp21-null, 10 μg/mL): full effect
- FOXP3 levels in murine Treg cells lacking Usp22 (Foxp3 in iTreg cells; Usp22-null, in vivo and in vitro): minimal effect on FOXP3 levels
- Foxp3 under glucose starvation in Treg cells lacking Usp22 (Foxp3 in iTreg cells; Usp22-null, low glucose, 10 μg/mL): no effect on Foxp3
- Foxp3 stability under glucose starvation (Foxp3 in iTreg cells; WT Treg cells, low glucose, 10 μg/mL): significantly diminished Foxp3 stability
- Foxp3 MFI and protein level (Foxp3 in iTreg cells; WT iTreg cells, 10 μg/mL): decreases in Foxp3 MFI and protein level comparable to Usp22-null iTreg cells
- Foxp3 stability under hypoxic and amino acid starvation conditions (Foxp3 in iTreg cells; WT nTreg cells, 10 μg/mL): reduces Foxp3 stability
- Foxp3 transcription (Foxp3 in iTreg cells; iTreg cells, 0-20 μg/mL): decreased Foxp3 transcription
- FOXP3 ubiquitination (Foxp3 in iTreg cells; iTreg cells, endogenous DUB assay IP): increased FOXP3 ubiquitination
- FoxP3 expression levels in Tregs [2]: did not reduce the levels of FoxP3
- IC50 [3]: ~4.7 µM
